How the values were obtained:
[1] = test system: healthy adults; conditions: p-value vs placebo; compositive level; single beverage dose; b330
[2] = test system: healthy adults; conditions: vs placebo; compositive level; single beverage dose

In the case of `Cn1c(=O)c2c(ncn2C)n(C)c1=O` [Caffeine, caffeine], the “improve the speed of performance significantly comparing to placebo (p), as printed in the attention paragraph” value [1] is reported as 0.002 and the accuracy of performance [2] is reported as “numerically trends to improve the accuracy of performance, although no significance observed”.
